COc1cc(-c2cc(-c3ccc(O)cc3)[nH]c(=O)c2C#N)ccc1O
solubility (mole fraction)
Details	in 1,4-dioxane	in chloroform	in ethanol	in ethyl acetate	in methanol	in n-butanol	in n-propanol
298.15 K	0.00153	0.00123	0.000745	0.00106	0.000574	0.000511	0.000847
303.15 K	0.00161	0.0013	0.000786	0.00111	0.000605	0.000566	0.000882
308.15 K	0.00169	0.00137	0.000828	0.00117	0.000635	0.00062	0.000927
313.15 K	0.00178	0.00144	0.000876	0.00122	0.000664	0.000674	0.00098
318.15 K	0.00187	0.00151	0.000922	0.00127	0.000693	0.000728	0.00104
323.15 K	0.00195	0.00157	0.000976	0.00134	0.000724	0.000794	0.00111
328.15 K	0.00203	0.00164	0.00103	0.0014	0.000754	0.000861	0.00116

COc1cc(-c2cc(-c3ccc(Br)cc3)[nH]c(=O)c2C#N)ccc1O
solubility (mole fraction)
Details	in 1,4-dioxane	in chloroform	in ethanol	in ethyl acetate	in methanol	in n-butanol	in n-propanol
298.15 K	0.0014	0.00114	0.00071	0.00109	0.000523	0.000338	0.000757
303.15 K	0.00148	0.00119	0.00075	0.00116	0.000555	0.000384	0.0008
308.15 K	0.00155	0.00123	0.000789	0.00124	0.000587	0.00043	0.000843
313.15 K	0.00163	0.00128	0.000832	0.00132	0.000615	0.000484	0.0009
318.15 K	0.0017	0.00133	0.000876	0.0014	0.000642	0.000538	0.000951
323.15 K	0.00177	0.00137	0.000919	0.00148	0.000682	0.000614	0.000997
328.15 K	0.00184	0.00142	0.000972	0.00156	0.000722	0.000691	0.00105

COc1cc(-c2cc(-c3ccc(F)cc3)[nH]c(=O)c2C#N)ccc1O
solubility (mole fraction)
Details	in 1,4-dioxane	in chloroform	in ethanol	in ethyl acetate	in methanol	in n-butanol	in n-propanol
298.15 K	0.00156	0.00134	0.000762	0.00133	0.000618	0.000531	0.000864
303.15 K	0.00164	0.00139	0.000809	0.00142	0.000638	0.000589	0.000907
308.15 K	0.00173	0.00145	0.000848	0.0015	0.000658	0.000648	0.00095
313.15 K	0.00183	0.00151	0.000897	0.0016	0.000688	0.000707	0.00101
318.15 K	0.00193	0.00158	0.000946	0.00169	0.000718	0.000767	0.00108
323.15 K	0.00202	0.00167	0.001	0.00178	0.000754	0.000835	0.00113
328.15 K	0.00211	0.00176	0.00106	0.00187	0.00079	0.000903	0.00119

COc1cc(-c2cc(-c3ccc(Cl)cc3)[nH]c(=O)c2C#N)ccc1O
solubility (mole fraction)
Details	in 1,4-dioxane	in chloroform	in ethanol	in ethyl acetate	in methanol	in n-butanol	in n-propanol
298.15 K	0.00149	0.00118	0.00073	0.00123	0.000577	0.0004	0.000791
303.15 K	0.00156	0.00123	0.00077	0.00132	0.000603	0.000445	0.000836
308.15 K	0.00163	0.00129	0.00081	0.0014	0.000629	0.000489	0.000882
313.15 K	0.00172	0.00135	0.000861	0.0015	0.000653	0.000549	0.000929
318.15 K	0.00181	0.00141	0.000905	0.00159	0.000677	0.000609	0.000976
323.15 K	0.00189	0.00149	0.000948	0.00168	0.000705	0.000672	0.00102
328.15 K	0.00197	0.00157	0.001	0.00177	0.000732	0.000735	0.00107

COc1ccc(-c2cc(-c3ccc(O)c(OC)c3)c(C#N)c(=O)[nH]2)cc1
solubility (mole fraction)
Details	in 1,4-dioxane	in chloroform	in ethanol	in ethyl acetate	in methanol	in n-butanol	in n-propanol
298.15 K	0.00145	0.00111	0.00069	0.00107	0.000472	0.000297	0.000733
303.15 K	0.00154	0.00116	0.000724	0.00115	0.000502	0.000344	0.000782
308.15 K	0.00162	0.0012	0.000759	0.00123	0.000532	0.000389	0.000827
313.15 K	0.00171	0.00124	0.000802	0.00129	0.000562	0.000443	0.000886
318.15 K	0.0018	0.00129	0.000846	0.00136	0.000592	0.000497	0.000934
323.15 K	0.00189	0.00134	0.000899	0.00145	0.000625	0.000565	0.00098
328.15 K	0.00199	0.00138	0.000953	0.00154	0.000659	0.000633	0.00103

Reference: BigSolDB 2.1
